# Reference: ChEMBL document CHEMBL3868615, “Decahydrobenzoquinolin-5-one sigma receptor ligands: Divergent development of both sigma 1 and sigma 2 receptor selective examples” (Bioorg Med Chem Lett, 2016)
# pKi: −log10 of the molar value.
# Experiments:
# [1] = target: 5-hydroxytryptamine receptor 1E (Homo sapiens, UniProt P28566); assay: Displacement of [3H]5-HT from human 5-HT1E receptor expressed in HEK cells measured after 90 mins by microbeta scintillation counting method; type: cell-based, HEK293
# Sequence of 5-hydroxytryptamine receptor 1E (P28566 whole entry): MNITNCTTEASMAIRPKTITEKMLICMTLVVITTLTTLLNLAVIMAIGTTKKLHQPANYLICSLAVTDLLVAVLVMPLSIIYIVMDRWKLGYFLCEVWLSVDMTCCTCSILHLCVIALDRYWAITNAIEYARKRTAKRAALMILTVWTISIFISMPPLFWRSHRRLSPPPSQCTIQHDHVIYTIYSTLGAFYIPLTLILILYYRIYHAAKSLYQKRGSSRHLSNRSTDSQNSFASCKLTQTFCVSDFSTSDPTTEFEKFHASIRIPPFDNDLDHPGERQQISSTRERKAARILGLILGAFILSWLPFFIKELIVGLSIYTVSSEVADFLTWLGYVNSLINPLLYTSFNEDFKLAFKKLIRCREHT
# [2] = target: Sigma non-opioid intracellular receptor 1 (Cavia porcellus) (UniProt Q60492); details: 10 uM
# Sequence of Sigma non-opioid intracellular receptor 1 (Cavia porcellus) (Q60492 whole entry): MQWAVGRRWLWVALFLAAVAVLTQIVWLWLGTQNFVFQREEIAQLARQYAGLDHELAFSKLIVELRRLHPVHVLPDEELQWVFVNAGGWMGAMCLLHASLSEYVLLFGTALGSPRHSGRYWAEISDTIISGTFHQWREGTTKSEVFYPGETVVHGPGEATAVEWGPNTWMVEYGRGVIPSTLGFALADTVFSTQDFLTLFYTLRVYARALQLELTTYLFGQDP
# [3] = target: Sigma non-opioid intracellular receptor 1 (Cavia porcellus, UniProt Q60492); assay: Displacement of [3H]pentazocine from guinea pig sigma1 receptor measured after 90 mins by microbeta scintillation counting method
# Sequence of Sigma non-opioid intracellular receptor 1 (Q60492 whole entry): as above
# D(4) dopamine receptor = D(4) dopamine receptor (Homo sapiens, UniProt P21917); assay: Displacement of [3H]N-methylspiperone from human D4 receptor measured after 90 mins by microbeta scintillation counting method
# [4] = Displacement of [3H]DTG from sigma2 receptor in rat PC12 cells measured after 90 mins by microbeta scintillation counting method; type: cell-based; details: pc-12
# [5] = target: Sodium-dependent dopamine transporter (Homo sapiens, UniProt Q01959); assay: Displacement of [3H]WIN35428 from human DAT expressed in HEK cells measured after 90 mins by microbeta scintillation counting method; type: cell-based, HEK293
# Sequence of Sodium-dependent dopamine transporter (Q01959 whole entry): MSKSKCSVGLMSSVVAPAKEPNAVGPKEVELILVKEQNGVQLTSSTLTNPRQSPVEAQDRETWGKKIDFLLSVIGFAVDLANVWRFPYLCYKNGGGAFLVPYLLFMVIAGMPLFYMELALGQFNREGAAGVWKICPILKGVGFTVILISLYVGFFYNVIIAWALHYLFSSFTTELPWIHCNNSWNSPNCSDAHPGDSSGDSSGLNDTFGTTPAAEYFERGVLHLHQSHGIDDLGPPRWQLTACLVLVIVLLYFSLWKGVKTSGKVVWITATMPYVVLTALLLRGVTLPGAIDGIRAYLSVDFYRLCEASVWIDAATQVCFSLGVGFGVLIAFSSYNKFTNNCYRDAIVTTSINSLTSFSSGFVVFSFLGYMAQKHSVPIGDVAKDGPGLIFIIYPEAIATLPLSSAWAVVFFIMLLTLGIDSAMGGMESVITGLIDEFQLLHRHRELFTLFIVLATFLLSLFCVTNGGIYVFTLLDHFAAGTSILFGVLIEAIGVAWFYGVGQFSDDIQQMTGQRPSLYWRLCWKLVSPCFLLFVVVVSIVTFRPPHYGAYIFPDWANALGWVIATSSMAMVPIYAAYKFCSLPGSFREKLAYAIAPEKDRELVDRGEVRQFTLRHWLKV
# D(1B) dopamine receptor = D(1B) dopamine receptor (Homo sapiens, UniProt P21918); assay: Displacement of [3H]SCH23390 from human D5 receptor expressed in HEK-T cells measured after 90 mins by microbeta scintillation counting method; type: cell-based
# [6] = target: Muscarinic acetylcholine receptor M1 (Homo sapiens, UniProt P11229); assay: Binding affinity to human M1 receptor expressed in CHO cells measured after 90 mins by radioligand binding assay; type: cell-based
# Sequence of Muscarinic acetylcholine receptor M1 (P11229 whole entry): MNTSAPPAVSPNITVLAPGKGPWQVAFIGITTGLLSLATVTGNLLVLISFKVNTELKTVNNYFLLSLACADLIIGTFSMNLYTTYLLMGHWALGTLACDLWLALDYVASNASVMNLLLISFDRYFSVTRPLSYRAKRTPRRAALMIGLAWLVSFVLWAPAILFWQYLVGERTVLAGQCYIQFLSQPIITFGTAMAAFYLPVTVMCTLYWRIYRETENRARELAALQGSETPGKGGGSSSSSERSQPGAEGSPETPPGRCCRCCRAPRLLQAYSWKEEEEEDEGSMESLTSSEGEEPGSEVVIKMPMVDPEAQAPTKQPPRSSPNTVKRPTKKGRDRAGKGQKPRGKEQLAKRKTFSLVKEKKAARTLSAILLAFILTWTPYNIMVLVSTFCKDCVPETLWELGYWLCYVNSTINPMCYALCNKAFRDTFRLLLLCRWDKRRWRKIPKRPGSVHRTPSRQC
# [7] = target: Beta-2 adrenergic receptor (Homo sapiens, UniProt P07550); assay: Displacement of [3H]CGP12177 from human beta2 receptor expressed in HEK Flp-In cells measured after 90 mins by microbeta scintillation counting method; type: cell-based, HEK293
# Sequence of Beta-2 adrenergic receptor (P07550 whole entry): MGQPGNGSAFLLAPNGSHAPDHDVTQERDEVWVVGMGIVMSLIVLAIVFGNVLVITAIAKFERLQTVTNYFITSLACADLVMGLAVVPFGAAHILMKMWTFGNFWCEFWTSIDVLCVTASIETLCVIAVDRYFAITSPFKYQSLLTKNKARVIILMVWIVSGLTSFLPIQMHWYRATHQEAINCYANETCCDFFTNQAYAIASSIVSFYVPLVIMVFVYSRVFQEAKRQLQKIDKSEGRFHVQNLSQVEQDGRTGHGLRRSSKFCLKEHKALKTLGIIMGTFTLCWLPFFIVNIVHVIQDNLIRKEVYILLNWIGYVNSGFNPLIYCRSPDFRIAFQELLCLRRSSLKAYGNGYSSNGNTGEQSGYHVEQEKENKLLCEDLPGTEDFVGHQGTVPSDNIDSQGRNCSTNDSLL
# D(3) dopamine receptor = D(3) dopamine receptor (Homo sapiens, UniProt P35462); assay: Displacement of [3H]N-methylspiperone from D3 receptor (unknown origin) expressed in HEK-T cells measured after 90 mins by microbeta scintillation counting method; type: cell-based
# [8] = target: Delta-type opioid receptor (Homo sapiens, UniProt P41143); assay: Displacement of [3H]DADLE from human DOR expressed in HEK cells measured after 90 mins by microbeta scintillation counting method; type: cell-based, HEK293
# Mu-type opioid receptor = Mu-type opioid receptor (Homo sapiens, UniProt P35372); assay: Displacement of [3H]DAMGO from human MOR expressed in HEK cells after 90 mins by microbeta scintillation counting method; type: cell-based, HEK293
# Sequence of Mu-type opioid receptor (P35372 whole entry): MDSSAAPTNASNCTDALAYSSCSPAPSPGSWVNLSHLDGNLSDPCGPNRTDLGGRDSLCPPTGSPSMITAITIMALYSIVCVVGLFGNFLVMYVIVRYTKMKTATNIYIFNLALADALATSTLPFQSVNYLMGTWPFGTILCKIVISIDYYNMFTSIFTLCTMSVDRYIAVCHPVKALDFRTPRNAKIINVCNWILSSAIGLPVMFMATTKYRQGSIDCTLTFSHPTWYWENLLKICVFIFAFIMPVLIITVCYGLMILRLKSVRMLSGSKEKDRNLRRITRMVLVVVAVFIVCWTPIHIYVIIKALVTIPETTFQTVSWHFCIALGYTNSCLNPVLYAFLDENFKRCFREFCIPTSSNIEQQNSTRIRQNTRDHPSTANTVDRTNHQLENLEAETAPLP
# [9] = target: Alpha-1A adrenergic receptor (Homo sapiens, UniProt P35348); assay: Displacement of [3H]Prazosin from human Alpha1A receptor measured after 90 mins by microbeta scintillation counting method
# Sequence of Alpha-1A adrenergic receptor (P35348 whole entry): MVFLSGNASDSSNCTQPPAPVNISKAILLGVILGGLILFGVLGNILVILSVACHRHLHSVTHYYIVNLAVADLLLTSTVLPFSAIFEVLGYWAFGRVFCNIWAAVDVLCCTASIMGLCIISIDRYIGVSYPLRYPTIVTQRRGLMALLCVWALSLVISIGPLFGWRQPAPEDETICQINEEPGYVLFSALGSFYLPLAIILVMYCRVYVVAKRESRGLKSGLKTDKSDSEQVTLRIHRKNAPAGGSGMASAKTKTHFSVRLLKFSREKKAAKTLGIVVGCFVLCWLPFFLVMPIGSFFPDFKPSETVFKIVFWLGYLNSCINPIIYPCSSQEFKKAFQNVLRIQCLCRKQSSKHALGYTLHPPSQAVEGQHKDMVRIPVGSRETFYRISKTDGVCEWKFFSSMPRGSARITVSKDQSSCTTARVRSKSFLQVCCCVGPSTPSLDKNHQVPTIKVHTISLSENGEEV
# [10] = target: Sodium-dependent serotonin transporter (Homo sapiens, UniProt P31645); assay: Displacement of [3H]Citalopram from human SERT expressed in HEK cells measured after 90 mins by microbeta scintillation counting method; type: cell-based, HEK293
# [11] = target: 5-hydroxytryptamine receptor 7 (Homo sapiens, UniProt P34969); assay: Displacement of [3H]LSD from human 5-HT7 receptor expressed in HEK cells measured after 90 mins by microbeta scintillation counting method; type: cell-based, HEK293
# [12] = target: Muscarinic acetylcholine receptor M5 (Homo sapiens, UniProt P08912); assay: Binding affinity to human M5 receptor expressed in CHO cells measured after 90 mins by radioligand binding assay; type: cell-based
# Sequence of Muscarinic acetylcholine receptor M5 (P08912 whole entry): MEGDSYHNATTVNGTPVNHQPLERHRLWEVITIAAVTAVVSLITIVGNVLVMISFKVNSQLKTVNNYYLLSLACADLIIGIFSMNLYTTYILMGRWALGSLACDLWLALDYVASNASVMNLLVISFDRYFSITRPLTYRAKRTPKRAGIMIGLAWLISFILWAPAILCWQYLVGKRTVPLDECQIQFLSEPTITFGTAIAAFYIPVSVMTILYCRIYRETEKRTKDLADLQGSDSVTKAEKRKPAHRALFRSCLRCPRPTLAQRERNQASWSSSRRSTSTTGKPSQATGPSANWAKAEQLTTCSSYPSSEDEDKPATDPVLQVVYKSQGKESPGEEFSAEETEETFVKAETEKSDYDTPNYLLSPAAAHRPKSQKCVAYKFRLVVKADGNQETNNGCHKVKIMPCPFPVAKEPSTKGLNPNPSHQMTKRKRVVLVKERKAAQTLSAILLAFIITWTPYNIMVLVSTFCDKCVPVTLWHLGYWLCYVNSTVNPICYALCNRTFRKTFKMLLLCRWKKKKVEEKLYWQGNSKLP
# [13] = target: Alpha-2B adrenergic receptor (Homo sapiens, UniProt P18089); assay: Displacement of [3H]Rauwolscine from human Alpha2B receptor expressed in HEK-T cells measured after 90 mins by microbeta scintillation counting method; type: cell-based
# [14] = target: 5-hydroxytryptamine receptor 2B (Homo sapiens, UniProt P41595); assay: Displacement of [3H]LSD from human 5-HT2B receptor expressed in HEK cells measured after 90 mins by microbeta scintillation counting method; type: cell-based, HEK293
# [15] = target: Alpha-2C adrenergic receptor (Homo sapiens, UniProt P18825); assay: Displacement of [3H]Rauwolscine from human Alpha2C receptor expressed in MDCK cells measured after 90 mins by microbeta scintillation counting method; type: cell-based
# PC-12 [16] = assay: Selectivity ratio of Ki for sigma2 receptor in rat PC12 cells to Ki for guinea pig sigma1 receptor; type: cell-based
# [17] = Displacement of [3H]Muscimol from GABAA receptor in rat brain measured after 90 mins by microbeta scintillation counting method; type: tissue-based
# Histamine H2 receptor = Histamine H2 receptor (Homo sapiens, UniProt P25021); assay: Binding affinity to H2 receptor (unknown origin) expressed in HEKT cells measured after 90 mins by radioligand binding assay; type: cell-based
# [18] = target: 5-hydroxytryptamine receptor 5A (Homo sapiens, UniProt P47898); assay: Displacement of [3H]LSD from human 5-HT5A receptor expressed in Flp-In CHO cells measured after 90 mins by microbeta scintillation counting method; type: cell-based
# PC-12 [19] = details: Rattus norvegicus, 10 uM
# D(1A) dopamine receptor = D(1A) dopamine receptor (Homo sapiens, UniProt P21728); assay: Displacement of [3H]SCH23390 from human D1 receptor expressed in HEK-T cells measured after 90 mins by microbeta scintillation counting method; type: cell-based
# [20] = target: 5-hydroxytryptamine receptor 1B (Homo sapiens, UniProt P28222); assay: Displacement of [3H]5-CT from human 5-HT1B receptor expressed in HEK cells measured after 90 mins by microbeta scintillation counting method; type: cell-based, HEK293
# [21] = target: Sodium-dependent noradrenaline transporter (Homo sapiens, UniProt P23975); assay: Displacement of [3H]Nisoxetine from human NET expressed in HEK cells measured after 90 mins by microbeta scintillation counting method; type: cell-based, HEK293
# Histamine H3 receptor = Histamine H3 receptor (Homo sapiens, UniProt Q9Y5N1); assay: Displacement of [3H]alpha-methylhistamine from human H3 receptor expressed in HEK Flp-In cells measured after 90 mins by microbeta scintillation counting method; type: cell-based, HEK293
# [22] = target: 5-hydroxytryptamine receptor 6 (Homo sapiens, UniProt P50406); assay: Displacement of [3H]LSD from human 5-HT6 receptor expressed in HEK cells measured after 90 mins by microbeta scintillation counting method; type: cell-based, HEK293
# Sequence of 5-hydroxytryptamine receptor 6 (P50406 whole entry): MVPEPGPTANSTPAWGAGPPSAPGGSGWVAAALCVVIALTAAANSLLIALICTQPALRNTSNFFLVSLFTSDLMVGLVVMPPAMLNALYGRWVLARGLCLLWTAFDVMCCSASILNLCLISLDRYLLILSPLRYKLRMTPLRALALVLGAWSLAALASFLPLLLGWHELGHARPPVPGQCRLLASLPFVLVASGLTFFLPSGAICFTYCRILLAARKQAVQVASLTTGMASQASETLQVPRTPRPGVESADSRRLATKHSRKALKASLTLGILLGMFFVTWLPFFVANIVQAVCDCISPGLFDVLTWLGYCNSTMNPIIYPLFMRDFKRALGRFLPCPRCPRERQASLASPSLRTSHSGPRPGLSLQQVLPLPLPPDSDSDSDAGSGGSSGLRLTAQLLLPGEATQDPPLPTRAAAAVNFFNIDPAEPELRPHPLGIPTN
# Histamine H1 receptor = Histamine H1 receptor (Homo sapiens, UniProt P35367); assay: Displacement of [3H]Pyrilamine from human H1 receptor expressed in HEK cells measured after 90 mins by microbeta scintillation counting method; type: cell-based, HEK293
# Sequence of Histamine H1 receptor (P35367 whole entry): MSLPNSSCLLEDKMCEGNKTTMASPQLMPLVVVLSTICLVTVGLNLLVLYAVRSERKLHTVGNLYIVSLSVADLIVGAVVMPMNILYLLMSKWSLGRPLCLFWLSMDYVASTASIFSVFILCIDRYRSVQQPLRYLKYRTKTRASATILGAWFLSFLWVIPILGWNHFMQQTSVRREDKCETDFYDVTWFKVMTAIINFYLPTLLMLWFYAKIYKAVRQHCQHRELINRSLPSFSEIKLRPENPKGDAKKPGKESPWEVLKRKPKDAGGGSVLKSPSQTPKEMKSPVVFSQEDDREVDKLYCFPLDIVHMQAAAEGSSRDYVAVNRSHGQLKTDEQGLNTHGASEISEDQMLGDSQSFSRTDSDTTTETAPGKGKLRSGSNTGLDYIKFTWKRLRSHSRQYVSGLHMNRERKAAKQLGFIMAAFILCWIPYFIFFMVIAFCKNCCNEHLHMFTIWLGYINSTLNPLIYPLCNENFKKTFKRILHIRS
# [23] = target: Muscarinic acetylcholine receptor M3 (Homo sapiens, UniProt P20309); assay: Binding affinity to human M3 receptor expressed in CHO cells measured after 90 mins by radioligand binding assay; type: cell-based
# [24] = target: Muscarinic acetylcholine receptor M2 (Homo sapiens, UniProt P08172); assay: Binding affinity to human M2 receptor expressed in CHO cells measured after 90 mins by radioligand binding assay; type: cell-based
# [25] = target: Alpha-1D adrenergic receptor (Homo sapiens, UniProt P25100); assay: Displacement of [3H]Prazosin from human Alpha1D receptor measured after 90 mins by microbeta scintillation counting method
# [26] = target: Alpha-1B adrenergic receptor (Homo sapiens, UniProt P35368); assay: Displacement of [3H]Prazosin from human Alpha1B receptor expressed in HEK-T cells measured after 90 mins by microbeta scintillation counting method; type: cell-based
# [27] = target: Muscarinic acetylcholine receptor M4 (Homo sapiens, UniProt P08173); assay: Binding affinity to human M4 receptor expressed in CHO cells measured after 90 mins by radioligand binding assay; type: cell-based
# Sequence of Muscarinic acetylcholine receptor M4 (P08173 whole entry): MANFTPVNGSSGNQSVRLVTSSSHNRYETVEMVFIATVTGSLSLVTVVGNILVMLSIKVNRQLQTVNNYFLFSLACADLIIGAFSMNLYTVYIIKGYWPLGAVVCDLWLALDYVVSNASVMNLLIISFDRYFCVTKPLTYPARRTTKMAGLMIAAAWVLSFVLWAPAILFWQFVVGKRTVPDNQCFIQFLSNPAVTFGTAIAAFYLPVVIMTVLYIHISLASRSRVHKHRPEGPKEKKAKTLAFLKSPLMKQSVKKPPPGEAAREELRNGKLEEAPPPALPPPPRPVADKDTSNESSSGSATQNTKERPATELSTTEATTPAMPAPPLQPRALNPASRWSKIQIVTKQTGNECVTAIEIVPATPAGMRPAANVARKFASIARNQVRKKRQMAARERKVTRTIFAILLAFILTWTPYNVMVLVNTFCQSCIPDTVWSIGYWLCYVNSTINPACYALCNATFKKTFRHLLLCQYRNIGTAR
smiles,measurement,setting,value
CCCN1CC[C@H]2c3cc4ccc(C(F)(F)F)cc4nc3[C@H](CC)[C@H]3CCC[C@@H]1[C@@H]32,pKi,[1],< 5.00
same,inhibition,[2],> 50%
same,pKi,[3],6.37
same,pKi,D(4) dopamine receptor,< 5.00
same,pKi,[4],7.82
same,pKi,[5],< 5.00
same,pKi,D(1B) dopamine receptor,< 5.00
same,pKi,[6],< 5.00
same,pKi,[7],< 5.00
same,pKi,D(3) dopamine receptor,< 5.00
same,pKi,[8],< 5.00
same,pKi,Mu-type opioid receptor,5.63
same,pKi,[9],< 5.00
same,pKi,[10],< 5.00
same,pKi,[11],< 5.00
same,pKi,[12],< 5.00
same,pKi,[13],5.98
same,pKi,[14],< 5.00
same,pKi,[15],5.98
same,Ratio Ki,PC-12 [16],0.04
same,pKi,[17],< 5.00
same,pKi,Histamine H2 receptor,< 5.00
same,pKi,[18],< 5.00
same,inhibition,PC-12 [19],> 50%
same,pKi,D(1A) dopamine receptor,< 5.00
same,pKi,[20],< 5.00
same,pKi,[21],< 5.00
same,pKi,Histamine H3 receptor,< 5.00
same,pKi,[22],< 5.00
same,pKi,Histamine H1 receptor,< 5.00
same,pKi,[23],< 5.00
same,pKi,[24],< 5.00
same,pKi,[25],< 5.00
same,pKi,[26],< 5.00
same,pKi,[27],< 5.00
CN1CC[C@H]2CC(=O)[C@H](Cc3ccccc3)[C@H]3CCC[C@@H]1[C@H]23,pKi,[1],< 5.00
same,inhibition,[2],> 50%
same,pKi,[3],8.70 to 8.82
same,pKi,D(4) dopamine receptor,< 5.00
same,pKi,[4],6.83
same,pKi,[5],5.66
same,pKi,D(1B) dopamine receptor,< 5.00
same,pKi,[6],< 5.00
same,pKi,[7],< 5.00
same,pKi,D(3) dopamine receptor,< 5.00
same,pKi,[8],< 5.00
same,pKi,Mu-type opioid receptor,< 5.00
same,pKi,[9],< 5.00
same,pKi,[10],< 5.00
same,pKi,[11],< 5.00
same,pKi,[12],5.46
same,pKi,[13],< 5.00
same,pKi,[14],5.72
same,pKi,[15],< 5.00
same,Ratio Ki,PC-12 [16],98.7
same,pKi,[17],< 5.00
same,pKi,Histamine H2 receptor,< 5.00
same,pKi,[18],< 5.00
same,inhibition,PC-12 [19],> 50%
same,pKi,D(1A) dopamine receptor,< 5.00
same,pKi,[20],< 5.00
same,pKi,[21],< 5.00
same,pKi,Histamine H3 receptor,6.09
same,pKi,[22],< 5.00
same,pKi,Histamine H1 receptor,< 5.00
same,pKi,[23],6.18
same,pKi,[24],< 5.00
same,pKi,[25],< 5.00
same,pKi,[26],< 5.00
same,pKi,[27],< 5.00
